# Experiments:
# Adenosine receptor A3 = target: T1, Adenosine receptor A3 (Homo sapiens, UniProt P0DMS8); test: Displacement of […] from human A3 adenosine receptor expressed in CHO cells after 60 mins by liquid scintillation counting; type: cell-based
# T1 sequence (P0DMS8 whole entry): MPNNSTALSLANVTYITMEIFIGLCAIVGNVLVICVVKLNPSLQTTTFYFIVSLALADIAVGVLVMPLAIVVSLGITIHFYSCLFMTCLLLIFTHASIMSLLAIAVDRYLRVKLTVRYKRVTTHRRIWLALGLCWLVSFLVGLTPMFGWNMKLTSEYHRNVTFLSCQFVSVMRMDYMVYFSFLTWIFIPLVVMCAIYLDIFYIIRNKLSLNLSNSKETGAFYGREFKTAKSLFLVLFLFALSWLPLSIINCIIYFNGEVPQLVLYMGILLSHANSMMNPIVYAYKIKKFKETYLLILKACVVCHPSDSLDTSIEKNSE
# Adenosine receptor A2a [1] = target: T2, Adenosine receptor A2a (Homo sapiens, UniProt P29274); test: Displacement of [3H]CGS21680 from human A2A adenosine receptor expressed in HEK293 cells after 60 mins by liquid scintillation counting; type: cell-based
# Adenosine receptor A1 = target: T3, Adenosine receptor A1 (Homo sapiens, UniProt P30542); test: Inhibition of human A1 adenosine receptor expressed in CHO cells after 60 mins by liquid scintillation counting; type: cell-based
# T3 sequence (P30542 whole entry): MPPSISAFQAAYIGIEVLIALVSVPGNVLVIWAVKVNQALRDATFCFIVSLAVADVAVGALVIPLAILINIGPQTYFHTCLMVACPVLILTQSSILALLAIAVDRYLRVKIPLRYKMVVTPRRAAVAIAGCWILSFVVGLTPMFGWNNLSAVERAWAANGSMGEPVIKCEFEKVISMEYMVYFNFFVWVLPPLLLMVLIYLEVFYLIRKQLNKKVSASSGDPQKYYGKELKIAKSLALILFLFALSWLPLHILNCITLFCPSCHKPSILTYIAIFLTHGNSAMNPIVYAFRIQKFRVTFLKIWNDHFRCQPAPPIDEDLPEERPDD
# [2] = target: T4, Adenosine receptor A2b (Homo sapiens) (UniProt P29275); test: Antagonist activity at human A2B adenosine receptor expressed in CHO cells assessed as inhibition of NECA-induced cAMP accumulation at 10 uM after 20 mins; type: functional, cell-based
# T4 sequence (whole entry): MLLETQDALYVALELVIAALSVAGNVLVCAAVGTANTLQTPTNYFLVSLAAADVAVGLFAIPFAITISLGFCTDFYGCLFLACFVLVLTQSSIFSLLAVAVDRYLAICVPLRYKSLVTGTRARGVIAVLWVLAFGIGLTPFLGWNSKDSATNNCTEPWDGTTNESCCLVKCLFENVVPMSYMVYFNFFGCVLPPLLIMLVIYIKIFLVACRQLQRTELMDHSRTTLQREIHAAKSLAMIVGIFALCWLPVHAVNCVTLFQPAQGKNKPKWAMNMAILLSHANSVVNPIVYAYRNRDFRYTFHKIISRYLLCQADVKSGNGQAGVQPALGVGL
# [3] = target: T5, Adenosine receptor A3 (Homo sapiens) (UniProt P0DMS8); test: Displacement of […] from human A3 adenosine receptor expressed in CHO cells at 10 uM after 60 mins by liquid scintillation counting; type: cell-based
# T5 sequence (whole entry): T1 sequence (P0DMS8 whole entry)
# Adenosine receptor A2a [4] = target: T2, Adenosine receptor A2a; test: Displacement of [3H]CGS21680 from human A2A adenosine receptor expressed in HEK293 cells at 10 uM after 60 mins by liquid scintillation counting; type: cell-based
# [5] = target: T6, Adenosine receptor A1 (Homo sapiens) (UniProt P30542); test: Inhibition of human A1 adenosine receptor expressed in CHO cells at 10 uM after 60 mins by liquid scintillation counting; type: cell-based
# T6 sequence (whole entry): T3 sequence (P30542 whole entry)
# T2 sequence (P29274 whole entry): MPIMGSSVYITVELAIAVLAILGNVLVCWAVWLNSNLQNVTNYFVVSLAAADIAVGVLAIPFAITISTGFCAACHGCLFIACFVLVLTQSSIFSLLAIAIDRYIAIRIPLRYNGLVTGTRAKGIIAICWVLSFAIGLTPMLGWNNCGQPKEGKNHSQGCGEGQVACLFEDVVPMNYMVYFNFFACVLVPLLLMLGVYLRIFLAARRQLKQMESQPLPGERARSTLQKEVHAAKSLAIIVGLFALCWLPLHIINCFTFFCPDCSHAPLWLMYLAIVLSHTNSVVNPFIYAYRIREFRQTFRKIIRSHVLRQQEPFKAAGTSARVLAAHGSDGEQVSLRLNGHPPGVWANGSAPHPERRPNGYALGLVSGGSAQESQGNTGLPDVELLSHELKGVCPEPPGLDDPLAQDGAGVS
SMILES,Ki (Adenosine receptor A3) [nM],Ki (Adenosine receptor A2a [1]) [nM],Ki (Adenosine receptor A1) [nM],inhibition [2] [%],inhibition [3] [%],inhibition (Adenosine receptor A2a [4]) [%],inhibition [5] [%]
O=C(Nc1nc(-c2ccccc2)n[nH]1)C1CCCO1 (configuration not stated),3100,5900,3200,-7,,,
Cc1ccccc1-c1n[nH]c(NC(=O)[C@@H](C)Oc2ccccc2)n1,,,,-3,48,26,6
C[C@@H](Oc1ccccc1)C(=O)Nc1nc(-c2ccccc2)n[nH]1,3300,1000,5200,23,,,
O=C(Nc1nnc(-c2ccccc2)[nH]1)c1ccccc1,300,400,1900,,,,
Cc1ccccc1OCC(=O)Nc1nnc(-c2ccccc2)[nH]1,1000,1700,,,,,
O=C(Nc1nnc(-c2ccccc2)[nH]1)c1ccc(Cl)cc1,200,2800,,,,,
O=C(COc1ccccc1)Nc1nc(-c2ccccc2)n[nH]1,,,,16,,,20
CCCC(=O)Nc1nnc(-c2ccccc2)[nH]1,200,1100,800,,,,
CCC(=O)Nc1nc(-c2ccccc2)n[nH]1,300,2500,,8,,,39
O=C(Nc1nc(-c2ccccc2)n[nH]1)c1ccccc1,,,,72,,,
CC(=O)Nc1nc(-c2ccccc2)n[nH]1,,,,10,,43,18
Cc1ccc(O[C@H](C)C(=O)Nc2nc(-c3ccco3)n[nH]2)cc1,5300,,,,,38,37
Cc1cccc(C)c1OCC(=O)Nc1nc(-c2ccccc2)n[nH]1,5500,1700,,43,,,49
Cc1cccc(O[C@H](C)C(=O)Nc2nc(-c3ccccc3)n[nH]2)c1,,,,18,,,
COc1ccc(CC(=O)Nc2nc(-c3ccccc3)n[nH]2)cc1,,,,-6,,,29
Cc1ccc(C(=O)Nc2nc(-c3ccccc3)n[nH]2)cc1,100,300,1300,29,,,
O=C(COCc1ccccc1)Nc1nc(-c2ccccc2)n[nH]1,4600,5000,8100,7,,,
O=C(COc1ccc2c(c1)CCC2)Nc1nc(-c2ccccc2)n[nH]1,2200,3900,,9,,,46
CC[C@@H](Oc1ccccc1)C(=O)Nc1nc(-c2ccccc2)n[nH]1,1900,1400,1500,-9,,,
Cc1cccc(-c2n[nH]c(NC(=O)[C@@H](C)Oc3ccccc3)n2)c1,6300,1800,,,,,12
Cc1cccc(OCC(=O)Nc2nc(-c3ccccc3)n[nH]2)c1,1500,2000,2300,8,,,
COc1ccccc1OCC(=O)Nc1nnc(-c2ccc(C)cc2)[nH]1,1000,,,,,,
Cc1ccc(-c2n[nH]c(NC(=O)COc3ccccc3)n2)cc1,,,,23,,,
C[C@@H](Oc1cccc(Cl)c1)C(=O)Nc1nc(-c2ccccc2)n[nH]1,,,,28,,,
O=C(Nc1nc(-c2ccccc2)n[nH]1)c1ccc(Cl)cc1,,,,-2,,,31
Cc1ccccc1OCC(=O)Nc1nc(-c2ccccc2)n[nH]1,,,,13,,,16

SMILES,Ki (Adenosine receptor A3) [nM],Ki (Adenosine receptor A2a [1]) [nM],Ki (Adenosine receptor A1) [nM],inhibition [2] [%],inhibition [3] [%],inhibition (Adenosine receptor A2a [4]) [%],inhibition [5] [%]
C[C@@H](Sc1ccccc1)C(=O)Nc1nnc(-c2ccccc2)[nH]1,1900,2200,3300,,,,
CC(C)(Oc1ccc(Cl)cc1)C(=O)Nc1nc(-c2ccccc2)n[nH]1,,,,6,,,41
Cc1cccc(-c2n[nH]c(NC(=O)C(C)Oc3ccccc3)n2)c1 (configuration not stated),,,,5,,,8
C[C@@H](Oc1ccccc1F)C(=O)Nc1nnc(-c2ccccc2)[nH]1,2600,1000,3700,,,,
O=C(COc1ccccc1)Nc1nnc(-c2ccccc2)[nH]1,2300,1800,,,,,
COc1ccccc1C(=O)Nc1nc(-c2ccccc2)n[nH]1,600,200,500,16,,,
C[C@@H](Oc1cccc(Cl)c1)C(=O)Nc1nnc(-c2ccccc2)[nH]1,2600,1000,1100,,,,
COc1ccccc1NC(=O)Nc1nnc(-c2ccccc2)[nH]1,300,200,,,,,
CC(=O)Nc1nnc(-c2ccccc2)[nH]1,300,,,,,,
Cc1cccc(-c2n[nH]c(NC(=O)[C@H](C)Oc3ccccc3)n2)c1,,,,,32,23,13
Cc1cc(C)cc(OCC(=O)Nc2nc(-c3ccccc3)n[nH]2)c1,,,,-5,,,
Cc1cccc(-c2nnc(NC(=O)C(C)Oc3ccccc3)[nH]2)c1 (configuration not stated),5900,2000,,,,,
Cc1ccc(-c2nnc(NC(=O)COc3ccccc3)[nH]2)cc1,3200,3600,6500,,,,
Cc1cccc(O[C@H](C)C(=O)Nc2nnc(-c3ccccc3)[nH]2)c1,,1200,,,,,
COc1ccccc1OCC(=O)Nc1nc(-c2ccc(C)cc2)n[nH]1,,,,-10,,49,8
C[C@@H](Oc1ccccc1F)C(=O)Nc1nc(-c2ccccc2)n[nH]1,,,,31,,,
Cc1cc(C)cc(OCC(=O)Nc2nnc(-c3ccccc3)[nH]2)c1,2700,3200,1600,,,,
C[C@@H](Oc1ccc(Cl)cc1)C(=O)Nc1nc(-c2ccccc2)n[nH]1,2500,4000,3900,51,,,
COc1ccccc1NC(=O)Nc1nc(-c2ccccc2)n[nH]1,,,,10,,,22
Cc1ccc(-c2n[nH]c(NC(=O)COc3ccccc3F)n2)cc1,,,,11,50,2,2
CC(C)(Oc1ccc(Cl)cc1)C(=O)Nc1nnc(-c2ccccc2)[nH]1,500,8800,,,,,
CCCC(=O)Nc1nc(-c2ccccc2)n[nH]1,,,,5,,,
O=C(COc1ccccc1)Nc1nc(-c2ccc(F)cc2)n[nH]1,1500,3500,,-10,,,2
Cc1ccc(O[C@H](C)C(=O)Nc2nc(-c3ccccc3)n[nH]2)cc1,1400,6400,,-6,,,38
O=C(CCc1ccccc1)Nc1nc(-c2ccccc2)n[nH]1,8300,3400,,40,,,40
C[C@@H](Sc1ccccc1)C(=O)Nc1nc(-c2ccccc2)n[nH]1,,,,21,,,
